In PMC6933707, “Palmitoylethanolamide counteracts substance P-induced mast cell activation in vitro by stimulating diacylglycerol lipase activity” (Journal of Neuroinflammation, 2019):

Experiments:
human CB2 receptor = human CB2 receptor (Homo sapiens, UniProt P34972); experiment: cAMP Hunter functional activity assay at the CB2 receptors; assay type: cell-based; parameters: host or cells: CHO-K1; conditions: 10 μM, highest concentration tested, CHO-K1 cells overexpressing human CB2
Protocol: The cAMP Hunter™ eXpress G protein-coupled receptor (GPCR) assay was performed in Chinese Hamster Ovary (CHO)-Kl cells overexpressing the human CB2 receptor. Gi-coupled cAMP modulation was measured following the manufacturer’s protocol (DiscoverX, Fremont, CA). CHO-K1 cells overexpressing the human CB2 receptor were plated into a 96-well plate (3× 10^4 cells/well) and incubated overnight at 37 °C in 5% CO2 atmosphere. The media were aspirated and replaced with 30 μl of assay buffer. Cells were incubated 30 min at 37 °C with 15 μl of 3× concentration-response solutions of 2-AG (0.01–50 μM), or PEA (10 μM), prepared in presence of cell assay buffer containing a 3× of 25 μM NKH-477 solution (a water-soluble analog of Forskolin) to stimulate adenylate cyclase and enhance basal cAMP levels. We also investigated the effect of PEA on 2-AG receptor activation by co-incubation. Therefore, cells were also incubated 30 min at 37 °C with 2-AG and PEA (10 μM) in the presence of NKH-477 to stimulate adenylate cyclase and enhance cAMP levels. […] Relative luminescence units (RLU) were measured by using a GloMax Multi Detection System (Promega Italia). […] The percentage of response was calculated by using the following formula: % RESPONSE = 100% × (1-(RLU of test compound-RLU of NKH-477 positive control)/(RLU of vehicle-RLU of NKH-477 positive control).

MGL = MGL enzyme activity assay (COS-7 cytosolic fractions); assay type: biochemical; conditions: up to 25 μM
Protocol: The 10,000×g cytosolic fractions obtained from COS-7 cells (100 μg of protein) were incubated with 2-arachidonoyl-[^3H]-glycerol (40 Ci/mmol, St. Louis, MO, USA) diluted with non-radiolabeled 2-AG (20 μM) in the presence of vehicle or increasing concentrations of PEA (0.1-25 μM), in Tris-HCl 50 mM pH 7.4 at 37 °C for 20 min [42]. After the incubation, the amounts of [^3H]-glycerol were measured in the aqueous phase [after extraction of the incubation mixture with 2 volumes of CHCl3/CH3OH (1:1, v/v)] by using Liquid Scintillation Analyzer (TRI-carb 2100TR).

RBL-2H3 cells = experiment: Histamine release assay (ELISA); assay type: cell-based, rat
Protocol: RBL-2H3 cells were plated into 24-well culture dishes at a cell density of 2 × 10^5 cells per well, or into 6-well culture dishes at a cell density of 9 × 10^5 cells per well, for 1 day at 37 °C in 5% CO2 atmosphere. After 1 day, RBL-2H3 cells were stimulated with SP (10 μM) or vehicle (water) and incubated for 15 min at 37 °C in 5% CO2 atmosphere.
SP-stimulated RBL-2H3 cells (2 × 10^5 cells/well) were treated with PEA (10 μM) or vehicle (methanol) for 15 min at 37 °C in 5% CO2 atmosphere. SP-stimulated RBL-2H3 cells were also treated with a CB2 antagonist, AM630 (0.1 μM), in the presence and absence of PEA (10 μM), or JWH133 (0.1 μM) (a CB2 synthetic agonist), and incubated for the indicated time. SP-stimulated RBL-2H3 cells were also treated with 2-AG (0.1 and 1 μM), or co-treated with PEA (0.1 μM) and 2-AG (0.1 μM), and incubated for the indicated time. SP-stimulated RBL-2H3 cells were also co-treated with PEA (10 μM) and OMDM188 (10 μM) (a DAGL inhibitor), and incubated for the indicated time. After 15 min, the supernatants were collected and the amounts of secreted histamine were measured by using a histamine ELISA kit according to the manufacturer’s instructions (Abnova) and by using a reader GENios Pro (Tecan). Data were expressed as nanograms per milliliter of histamine.

DAGL-β = target: T1, DAGL-β (Rattus norvegicus, UniProt P0C1S9); experiment: DAGL-β enzyme activity assay (RBL-2H3 cell membranes); assay type: biochemical; conditions: 25 μM
T1 construct: constitutive DAGL-β activity in RBL-2H3 cell membranes; endogenous in cells; host or cells: RBL-2H3
T1 sequence (P0C1S9 1-668): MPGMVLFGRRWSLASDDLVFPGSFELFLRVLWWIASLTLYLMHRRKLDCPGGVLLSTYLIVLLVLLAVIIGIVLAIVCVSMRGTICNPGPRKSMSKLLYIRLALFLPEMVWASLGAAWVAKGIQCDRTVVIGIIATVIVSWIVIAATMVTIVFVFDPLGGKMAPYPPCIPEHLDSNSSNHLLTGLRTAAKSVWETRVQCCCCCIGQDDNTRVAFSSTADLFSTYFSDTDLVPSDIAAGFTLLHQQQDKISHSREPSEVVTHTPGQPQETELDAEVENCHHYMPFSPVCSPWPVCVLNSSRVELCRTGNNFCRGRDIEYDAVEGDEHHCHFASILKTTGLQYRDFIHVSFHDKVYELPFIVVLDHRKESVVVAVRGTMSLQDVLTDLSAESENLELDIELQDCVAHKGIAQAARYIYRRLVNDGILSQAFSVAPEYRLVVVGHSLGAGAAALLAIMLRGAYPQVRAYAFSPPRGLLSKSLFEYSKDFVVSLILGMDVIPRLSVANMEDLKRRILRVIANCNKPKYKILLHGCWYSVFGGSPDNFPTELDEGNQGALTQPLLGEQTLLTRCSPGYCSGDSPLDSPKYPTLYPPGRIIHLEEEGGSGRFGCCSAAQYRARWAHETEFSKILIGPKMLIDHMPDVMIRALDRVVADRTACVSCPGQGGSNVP
Protocol: DAGL-β enzyme activity was assessed by using membrane preparations (100 μg of protein) obtained from RBL-2H3 cells, and 1-[^14C]oleoyl-2-arachidonoylglycerol (1.0 mCi/mmol, 50 μM, [40, 41]), as substrate in the presence of vehicle or increasing concentrations of PEA (1–25 μM) in Tris-HCl 50 mM pH 7.4 or in Tris-HCl 50 mM pH 7.4 and CaCl2 10 mM. After the incubation (20 min at 37 °C), the protocol followed the same procedures as above reported for DAGL-α enzyme activity assay. Data were expressed as % of activity of DAGL-β.

Sequence of human CB2 receptor (P34972 whole entry): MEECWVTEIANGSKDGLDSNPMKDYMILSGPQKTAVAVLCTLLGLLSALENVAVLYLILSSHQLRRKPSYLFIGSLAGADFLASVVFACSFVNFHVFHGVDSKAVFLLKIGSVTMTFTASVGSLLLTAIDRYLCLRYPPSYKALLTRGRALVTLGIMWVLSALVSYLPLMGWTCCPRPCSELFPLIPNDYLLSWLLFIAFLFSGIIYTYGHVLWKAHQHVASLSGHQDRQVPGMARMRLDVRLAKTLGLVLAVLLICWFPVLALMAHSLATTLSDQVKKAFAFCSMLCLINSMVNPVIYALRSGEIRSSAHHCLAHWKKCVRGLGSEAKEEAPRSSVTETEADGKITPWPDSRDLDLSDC

For CCCCCCCCCCCCCCCC(=O)NCCO [PEA, Palmitoylethanolamide], the “effect on NKH-477-induced cAMP levels (CB2 activation)” value (human CB2 receptor) was “failed at decreasing cAMP levels”, the “inhibitory effect on MGL activity” value (MGL) was “no inhibitory effect” and the “maximal % inhibition of MGL activity” value (MGL) was under 5%. For the same compound, the histamine release (RBL-2H3 cells; SP (10 μM)-stimulated cells, compound 0.1 μM, 15 min, vs SP + vehicle) was “comparable”, the histamine release (RBL-2H3 cells; SP (10 μM)-stimulated cells, compound 10 μM, 15 min, vs SP + vehicle) was “inhibited the release of histamine” and the histamine release (RBL-2H3 cells; SP-stimulated cells co-treated with PEA 0.1 μM and 2-AG 0.1 μM, 15 min) was “able to reduce”. The histamine release (RBL-2H3 cells; SP-stimulated cells co-treated with PEA 10 μM and AM630 0.1 μM, vs SP + vehicle or SP + AM630) was “comparable”, the histamine release (RBL-2H3 cells; substance alone 10 μM, 15 min, vs vehicle-treated cells) was “No effect” and the “stimulation of the activity of DAGL-β” value (DAGL-β) was 33 ± 5.43%.
